# Like-named read-outs stand apart in the source and are kept apart here.
# Assays:
# PIM-2 = PIM-2 (Homo sapiens (Human), UniProt Q9P1W9); assay: PIM-2 biochemical assay (ADP Hunter); details: semi-quantitative; read-out: PIM2 IC50
# Source text: The biochemical assay to measure PIM-2 activity relies on the ADP Hunter assay kit (DiscoveRx Corp., Cat. #90-0077), that determines the amount of ADP as direct product of the kinase enzyme activity.
# PIM-3 = PIM-3 (Homo sapiens (Human), UniProt Q86V86); assay: PIM-3 biochemical assay (ADP Hunter); details: semi-quantitative; read-out: PIM3 IC50
# [1] = test system: Bad S112 phosphorylation in H1299 cells overexpressing Pim1 (H1299Pim1); assay: Bad S112 phosphorylation inhibition assay (In Cell ELISA); assay type: cell-based; details: Homo sapiens, NCI-H1299, semi-quantitative, read-out: EC50 BadP ELISA H1299 Pim1
# Experimental: Efficacy of compounds of the invention on the inhibition of Bad phosphorylation was measured by an In Cell ELISA. EC50 values were established for the tested compounds.
# Cells: H1299 cells overexpressing Pim1 (H1299Pim1)
# Cells were seeded in 15000 cells per 200 μl per well into 96-well plates and incubated for 16 h at 37° C., 5% CO2. On day two, nine serial 1:2 compound dilutions were made in DMSO in a 96-well plate. The compounds were added to duplicate wells in 96-well cell plates using a FX BECKMAN robot (Beckman Coulter) and incubated at 37° C. with CO2 atmosphere. After 4 hours, relative levels of Bad S112 phosphorylation were measured in Cell ELISA using SuperSignal ELISA Femto substrate (Pierce) and read on VICTOR (Perkin Elmer). EC50 values were calculated using ActivityBase from IDBS.
# PIM-1 = PIM-1 (Homo sapiens (Human), UniProt P11309); assay: PIM-1 biochemical assay (ADP Hunter)
# [2] = read-out: PIM1 IC50, semi-quantitative
# PIM-2, sequence (Q9P1W9 whole entry): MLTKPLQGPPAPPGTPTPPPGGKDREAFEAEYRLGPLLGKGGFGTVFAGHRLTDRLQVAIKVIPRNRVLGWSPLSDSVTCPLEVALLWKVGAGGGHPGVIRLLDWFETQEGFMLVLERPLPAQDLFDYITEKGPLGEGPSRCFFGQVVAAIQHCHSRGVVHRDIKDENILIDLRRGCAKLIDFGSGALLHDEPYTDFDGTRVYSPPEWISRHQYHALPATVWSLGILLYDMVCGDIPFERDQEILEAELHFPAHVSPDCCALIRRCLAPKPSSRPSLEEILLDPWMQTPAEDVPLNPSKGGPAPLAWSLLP
# PIM-1, sequence (P11309 whole entry): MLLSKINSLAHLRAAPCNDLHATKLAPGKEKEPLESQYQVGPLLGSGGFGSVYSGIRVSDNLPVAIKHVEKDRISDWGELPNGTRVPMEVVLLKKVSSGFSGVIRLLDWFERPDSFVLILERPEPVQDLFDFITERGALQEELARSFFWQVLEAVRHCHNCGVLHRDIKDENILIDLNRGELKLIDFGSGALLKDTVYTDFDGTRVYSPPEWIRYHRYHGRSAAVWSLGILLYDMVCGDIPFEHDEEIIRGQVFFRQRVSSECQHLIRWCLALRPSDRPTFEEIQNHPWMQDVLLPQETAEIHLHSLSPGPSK
SMILES,IC50 (PIM-2) [µM],IC50 (PIM-3) [µM],EC50 [1] [µM],IC50 (PIM-1) [µM],IC50 (PIM-1; [2]) [µM],IC50 (PIM-1; read-out: PIM1 IC50) [µM]
"CN1CCC(CNc2nn3c(-c4cccc(C#N)c4)nnc3c3c2N(C)CCO3)CC1 [Example 31, 3-{6-Methyl-5-[(1-methyl-piperidin-4-ylmethyl)-amino]-7,8-dihydro-6H-9-oxa-1,2,3a,4,6-pentaaza-cyclopenta[a]naphthalen-3-yl}-benzonitrile]",> 1,0.1 to 1,1 to 10,0.1 to 1,,
"COc1ccc(-c2nnc3c4c(c(NCc5ccc(F)cc5)nn23)N(C)CCO4)cc1 [Example 81, (4-Fluoro-benzyl)-[3-(4-methoxy-phenyl)-6-methyl-7,8-dihydro-6H-9-oxa-1,2,3a,4,6-pentaaza-cyclopenta[a]naphthalen-5-yl]-amine]",> 1,0.1 to 1,1 to 10,,< 0.1,
"CN1CCC(CNc2nn3c(-c4cccc(OC(F)(F)F)c4)nnc3c3c2OCCN3C)CC1 [Example 17, (1-Methyl-piperidin-4-ylmethyl)-[9-methyl-3-(3-trifluoromethoxy-phenyl)-8,9-dihydro-7H-6-oxa-1,2,3a,4,9-pentaaza-cyclopenta[a]naphthalen-5-yl]-amine]",> 1,0.1 to 1,1 to 10,,< 0.1,
"CN1CCOc2c(N3CCC4(CC3)CC(N)C4)nn3c(-c4cccc(OC(F)(F)F)c4)nnc3c21 [Example 66, 7-[9-Methyl-3-(3-trifluoromethoxy-phenyl)-8,9-dihydro-7H-6-oxa-1,2,3a,4,9-pentaaza-cyclopenta[a]naphthalen-5-yl]-7-aza-spiro[3.5]non-2-ylamine]",> 1,0.1 to 1,1 to 10,,< 0.1,
"CN1CCOc2c(NCC3CCNCC3)nn3c(-c4cccc(OC(F)(F)F)c4)nnc3c21 [Example 58, [9-Methyl-3-(3-trifluoromethoxy-phenyl)-8,9-dihydro-7H-6-oxa-1,2,3a,4,9-pentaaza-cyclopenta[a]naphthalen-5-yl]-piperidin-4-ylmethyl-amine]",> 1,0.1 to 1,1 to 10,,< 0.1,
"CC(C)NCC1CCN(c2nn3c(-c4cccc(OC(F)(F)F)c4)nnc3c3c2OCCN3C)CC1 [Example 86, Isopropyl-{1-[9-methyl-3-(3-trifluoromethoxy-phenyl)-8,9-dihydro-7H-6-oxa-1,2,3a,4,9-pentaaza-cyclopenta[a]naphthalen-5-yl]-piperidin-4-ylmethyl}-amine]",> 1,0.1 to 1,1 to 10,0.1 to 1,,
"CN1CCOc2c1c(NCCN1CCOCC1)nn1c(-c3cccc(OC(F)(F)F)c3)nnc21 [Example 29, [6-Methyl-3-(3-trifluoromethoxy-phenyl)-5,6,7,8-tetrahydro-9-oxa-1,2,3a,4,6-pentaaza-cyclopenta[a]naphthalen-5-yl]-(2-morpholin-4-yl-ethyl)-amine]",0.1 to 1,0.1 to 1,< 0.25,,,
"CN1CCOc2c1c(NCC13CCN(CC1)C3)nn1c(-c3cccc(OC(F)(F)F)c3)nnc21 [Example 54, (1-Aza-bicyclo[2.2.1]hept-4-ylmethyl)-[6-methyl-3-(3-trifluoromethoxy-phenyl)-7,8-dihydro-6H-9-oxa-1,2,3a,4,6-pentaaza-cyclopenta[a]naphthalen-5-yl]-amine]",,,0.25 to 1,,,
"CN1CCOc2c(NC3CC4(CCNCC4)C3)nn3c(-c4cccc(OC(F)(F)F)c4)nnc3c21 [Example 65, (7-Aza-spiro[3.5]non-2-yl)-[9-methyl-3-(3-trifluoromethoxy-phenyl)-8,9-dihydro-7H-6-oxa-1,2,3a,4,9-pentaaza-cyclopenta[a]naphthalen-5-yl]-amine]",,0.1 to 1,1 to 10,,< 0.1,
"CCN1CCC(CNc2nn3c(-c4cccc(OC(F)(F)F)c4)nnc3c3c2N(C)CCO3)CC1 [Example 91, (1-Ethyl-piperidin-4-ylmethyl)-[6-methyl-3-(3-trifluoromethoxy-phenyl)-7,8-dihydro-6H-9-oxa-1,2,3a,4,6-pentaaza-cyclopenta[a]naphthalen-5-yl]-amine]",,,0.25 to 1,,,
"CN1CCC(CNc2nn3c(-c4cccc(OC(F)(F)F)c4)nnc3c3c2CCCC3)CC1 [Example 37, (1-Methyl-piperidin-4-ylmethyl)-[3-(3-trifluoromethoxy-phenyl)-7,8,9,10-tetrahydro-[1,2,4]triazolo[3,4-a]phthalazin-6-yl]-amine]",,,1 to 10,,,
"CN1CCOc2c1c(N1CCCC3(CCCN3)CC1)nn1c(-c3cccc(OC(F)(F)F)c3)nnc21 (stereo not shown) [Example 60, 5-(1,8-Diaza-spiro[4.6]undec-8-yl)-6-methyl-3-(3-trifluoromethoxy-phenyl)-7,8-dihydro-6H-9-oxa-1,2,3a,4,6-pentaaza-cyclopenta[a]naphthalene]",0.1 to 1,,< 0.25,,< 0.1,
"CN1CCOc2c1c(N1CC3(CCCNC3)C1)nn1c(-c3cccc(OC(F)(F)F)c3)nnc21 [Example 69, 5-(2,6-Diaza-spiro[3.5]non-2-yl)-6-methyl-3-(3-trifluoromethoxy-phenyl)-7,8-dihydro-6H-9-oxa-1,2,3a,4,6-pentaaza-cyclopenta[a]naphthalene]",0.1 to 1,,< 0.25,,< 0.1,
CN1CCOc2c1c(NCC1CC3(CCNCC3)C1)nn1c(-c3cccc(OC(F)(F)F)c3)nnc21 [Example 59],,,0.25 to 1,,,
"CN(CCN1CCOCC1)c1nn2c(-c3cccc(OC(F)(F)F)c3)nnc2c2c1N(C)CCO2 [Example 98, Methyl-[6-methyl-3-(3-trifluoromethoxy-phenyl)-7,8-dihydro-6H-9-oxa-1,2,3a,4,6-pentaaza-cyclopenta[a]naphthalen-5-yl]-(2-morpholin-4-yl-ethyl)-amine]",0.1 to 1,0.1 to 1,,,< 0.1,
"CN1CCOc2c1c(NCc1ccc(F)cc1)nn1c(-c3cccc(OC(F)(F)F)c3)nnc21 [Example 9, (4-Fluoro-benzyl)-[6-methyl-3-(3-trifluoromethoxy-phenyl)-7,8-dihydro-6H-9-oxa-1,2,3a,4,6-pentaaza-cyclopenta[a]naphthalen-5-yl]-amine]",> 1,,1 to 10,< 0.1,,0.0524
"CN1CCOc2c1c(NC1CC3(CCNCC3)C1)nn1c(-c3cccc(OC(F)(F)F)c3)nnc21 [Example 49, (7-Aza-spiro[3.5]non-2-yl)-[6-methyl-3-(3-trifluoromethoxy-phenyl)-7,8-dihydro-6H-9-oxa-1,2,3a,4,6-pentaaza-cyclopenta[a]naphthalen-5-yl]-amine]",,,0.25 to 1,,< 0.1,
"CN1CCC(CNc2nn3c(-c4ccc(F)cc4)nnc3c3c2N(C)CCO3)CC1 [Example 100, [3-(4-Fluoro-phenyl)-6-methyl-7,8-dihydro-6H-9-oxa-1,2,3a,4,6-pentaaza-cyclopenta[a]naphthalen-5-yl]-(1-methyl-piperidin-4-ylmethyl)-amine]",> 1,,1 to 10,0.1 to 1,,0.181
"CCN1CCOc2c1c(NCC1CCN(C)CC1)nn1c(-c3cccc(OC(F)(F)F)c3)nnc21 [Example 12, [6-Ethyl-3-(3-trifluoromethoxy-phenyl)-7,8-dihydro-6H-9-oxa-1,2,3a,4,6-pentaaza-cyclopenta[a]naphthalen-5-yl]-(1-methyl-piperidin-4-ylmethyl)-amine]",,,< 0.25,,< 0.1,
